# Reference: paper PMC12609950, “Evaluation of ^161Tb-Labeled Diphosphonates as Potential Bone-Targeting Agents” (International Journal of Molecular Sciences, 2025)
# Legend:
# [1] = Cyclic voltammetry of Tb, HEDP and ZOL; conditions: glassy carbon electrode, Ag/AgCl reference, carbonate buffer pH 9
# [2] = Radioelectrophoresis (net charge of complexes); format: physicochemical; conditions: 0.05 M phosphate buffer pH 7.4, 250 V, 1 h
# Method: Radioelectrophoresis was employed to determine the net charge of the ^161Tb-labeled diphosphonate complexes and to confirm successful radiolabeling. For each sample, 5 μL of the radiolabeled complex or a control solution of ^161TbCl3 was applied to the center of Whatman 3MM chromatography paper strips (2 × 25 cm), which had been pre-soaked in 0.05 M phosphate buffer (pH 7.4). The strips were placed in an electrophoresis chamber filled with the same phosphate buffer, and electrophoresis was carried out at 250 V for 1 h using a Gelman Instrument electrophoresis system (Gelman Instrument Co., Ann Arbor, MI, USA). After radioelectrophoresis, each strip was dried and scanned using a TLC scanner. This method allowed the determination of the migration pattern of the radiolabeled species compared to free ^161Tb^3+, providing information about the charge and integrity of the formed complexes.
# [3] = Biodistribution in healthy Wistar rats; format: in vivo; conditions: i.v.
# Method: All animal experiments were conducted using healthy Wistar rats weighing 100–120 g. The rats were obtained from the Military Medical Academy (Belgrade, Serbia). All procedures involving animals were approved by the Ethical Committee of the Vinča Institute of Nuclear Sciences (permission No. 002225501 2025, issued on 20 May 2025) and were performed by the Directive 2010/63/EU of the European Parliament and of the Council of 22 September 2010 [50] on the protection of animals used for scientific purposes, as well as national animal welfare laws.
# A total of 0.74 MBq of each ^161Tb-labeled compound (^161Tb-HEDP and ^161Tb-ZOL) and free ^161TbCl3 (at pH 7.5 and pH 4.5) was prepared in a final injection volume of 0.1 mL. Physiological saline was added to adjust the concentration to 10 µg of radiolabeled complex per 0.1 mL. Each formulation was administered intravenously via the lateral tail vein.
# Animals (n = 3 per time point) were sacrificed at predetermined intervals: 2 h, 24 h, and 7 d post-injection, depending on the study group. Euthanasia was performed by intraperitoneal injection of a ketamine/xylazine overdose. Immediately after sacrifice, major organs and tissues (heart, lungs, liver, spleen, kidneys, stomach, intestines, muscle, and femur) were collected, weighed, and assessed for radioactivity using a gamma counter. The biodistribution of radiolabeled compounds was expressed as the percentage of the injected dose per gram of tissue (%ID/g), calculated by comparing the sample activity to that of the standard representing 100% of the injected dose. All data are presented as mean ± standard deviation (SD).
# [4] = 2 h post-injection (initial), injected at pH 4.5
# [5] = 2 h post-injection, injected at pH 4.5
# [6] = 2 h post-injection, injected at pH 7.5
# [7] = 7 d post-injection, injected at pH 7.5
smiles,measurement,setting,value
"O.O.O.O.O.O.[Cl-].[Cl-].[Cl-].[Tb+3] [Tb, terbium(III) chloride hexahydrate]",Second Oxidation Pot.,[1],1.39 V
same,Second Reduction Pot.,[1],−0.56 V
"O=P(O)(O)C(O)(Cn1ccnc1)P(=O)(O)O [ZOL, 1-hydroxy-2-(1H-imidazol-1-yl)ethane-1,1-diyldiphosphonic acid]",First Oxidation Pot.,[1],0.93 V
same,First Reduction Pot.,[1],0.41 V
same,Second Oxidation Pot.,[1],1.27 V
same,Second Reduction Pot.,[1],−0.54 V
[161Tb+3].[Cl-].[Cl-].[Cl-] [^161TbCl3],Migration / net charge in radioelectrophoresis,[2],remained at the point of application
same,Liver,[3]; [4],1.88 ± 0.31 %ID/g
same,Spleen uptake,[3]; [4],0.37 ± 0.12 %ID/g
same,Blood,[3]; [5],0.02 ± 0.01 %ID/g
same,Bone uptake,[3]; [5],7.31 ± 0.32 %ID/g
same,Bone-to-kidney ratio,[3]; [5],3.97
same,Bone-to-liver ratio,[3]; [5],3.89
same,Muscle,[3]; [5],0.08 ± 0.05 %ID/g
same,Other tissues,[3]; [5],Minimal uptake
same,Kidney,"[3]; 2 h post-injection, injected at pH 4.5, listed as 161TbCl3 (pH 4.5)",1.84 ± 0.07 %ID/g
same,Bone uptake,[3]; [6],6.53 ± 0.22 %ID/g
same,Kidney uptake,[3]; [6],1.03 ± 0.06 %ID/g
same,Liver uptake,[3]; [6],6.99 ± 0.21 %ID/g
same,Spleen uptake,[3]; [6],4.88 ± 0.15 %ID/g
same,Bone uptake,"[3]; 24 h post-injection, injected at pH 7.5",6.61 ± 0.14 %ID/g
same,Bone uptake,"[3]; 7 d post-injection, injected at pH 4.5",7.18 ± 0.12 %ID/g
same,Bone uptake,[3]; [7],6.68 ± 0.29 %ID/g
same,Kidney uptake,[3]; [7],0.60 ± 0.02 %ID/g
same,Liver uptake,[3]; [7],2.33 ± 0.02 %ID/g
same,Spleen uptake,[3]; [7],0.79 ± 0.02 %ID/g
"CC(O)(P(=O)(O)O)P(=O)(O)O [HEDP, 1-Hydroxyethylidene-1,1-diphosphonic acid]",Second Oxidation Pot.,[1],1.45 V
same,Second Reduction Pot.,[1],−0.54 V
